Some targets named below: D(3) dopamine receptor (Homo sapiens, UniProt P35462); Vasopressin V2 receptor (Homo sapiens, UniProt P30518); Melanocortin receptor 3 (Homo sapiens, UniProt P41968); Mu-type opioid receptor (Homo sapiens, UniProt P35372); Adenosine receptor A2a (Homo sapiens, UniProt P29274).
In assay [1] the target is T1, Alpha-2A adrenergic receptor (Homo sapiens, UniProt P08913).
T1 sequence (P08913 whole entry): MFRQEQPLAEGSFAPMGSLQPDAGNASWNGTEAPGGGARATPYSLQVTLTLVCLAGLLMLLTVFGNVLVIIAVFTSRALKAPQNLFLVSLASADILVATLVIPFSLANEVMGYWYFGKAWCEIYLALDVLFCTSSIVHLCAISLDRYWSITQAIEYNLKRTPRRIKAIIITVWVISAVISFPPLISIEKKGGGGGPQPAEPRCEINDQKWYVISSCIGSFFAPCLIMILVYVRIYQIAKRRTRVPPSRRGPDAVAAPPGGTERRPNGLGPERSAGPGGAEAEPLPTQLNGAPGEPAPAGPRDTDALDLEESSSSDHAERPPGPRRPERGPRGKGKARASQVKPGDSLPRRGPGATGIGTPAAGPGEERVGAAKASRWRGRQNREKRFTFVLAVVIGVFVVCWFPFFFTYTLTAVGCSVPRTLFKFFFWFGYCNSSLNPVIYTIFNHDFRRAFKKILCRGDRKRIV
The assay is classed as functional, cell-based.

In assay [2] the target is T2, 5-hydroxytryptamine receptor 1A (Homo sapiens, UniProt P08908).
T2 sequence (P08908 whole entry): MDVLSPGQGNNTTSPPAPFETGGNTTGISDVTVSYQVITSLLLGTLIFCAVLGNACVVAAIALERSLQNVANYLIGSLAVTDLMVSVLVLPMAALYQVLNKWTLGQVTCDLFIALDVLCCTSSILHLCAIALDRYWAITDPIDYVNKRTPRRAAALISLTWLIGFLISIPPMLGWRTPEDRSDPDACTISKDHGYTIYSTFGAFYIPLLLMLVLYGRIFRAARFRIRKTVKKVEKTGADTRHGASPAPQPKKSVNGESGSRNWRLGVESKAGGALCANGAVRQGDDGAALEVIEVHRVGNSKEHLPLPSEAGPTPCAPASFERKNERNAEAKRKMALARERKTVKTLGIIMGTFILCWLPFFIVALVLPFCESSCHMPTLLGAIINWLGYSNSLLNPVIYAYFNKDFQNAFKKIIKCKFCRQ
The assay is classed as functional, cell-based.

For a further assay, the target named is Histamine H2 receptor (Homo sapiens, UniProt P25021). The class given is functional, cell-based.
In assay [3] the target is Gamma-aminobutyric acid receptor subunit alpha-1 (Rattus norvegicus, UniProt P62813).
The target of assay [4] is T3, Alpha-1A adrenergic receptor (Homo sapiens, UniProt P35348).
T3 sequence (P35348 whole entry): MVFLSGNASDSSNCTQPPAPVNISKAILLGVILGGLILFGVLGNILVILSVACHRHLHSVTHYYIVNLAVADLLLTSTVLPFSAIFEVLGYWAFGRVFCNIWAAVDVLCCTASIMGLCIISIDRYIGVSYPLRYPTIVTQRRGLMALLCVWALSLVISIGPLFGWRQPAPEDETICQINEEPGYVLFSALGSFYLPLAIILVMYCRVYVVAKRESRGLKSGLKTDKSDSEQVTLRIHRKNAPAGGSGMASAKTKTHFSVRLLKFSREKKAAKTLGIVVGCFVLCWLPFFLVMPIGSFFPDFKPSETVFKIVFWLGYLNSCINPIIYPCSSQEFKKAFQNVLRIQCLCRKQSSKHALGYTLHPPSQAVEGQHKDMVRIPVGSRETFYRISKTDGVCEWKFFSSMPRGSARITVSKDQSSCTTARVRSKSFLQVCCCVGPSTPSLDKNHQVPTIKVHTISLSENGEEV
The class given is functional, cell-based.

For assay [5], the target named is Sodium-dependent noradrenaline transporter (Homo sapiens, UniProt P23975).
Assay [6] deals with Voltage-dependent L-type calcium channel subunit alpha-1C (Rattus norvegicus, UniProt P22002). The assay is classed as functional.
For assay [7], the target named is Vascular endothelial growth factor receptor 2 (Homo sapiens, UniProt P35968). The class given is functional.
The target of another assay is T4, Adenosine receptor A3 (Homo sapiens, UniProt P0DMS8).
T4 sequence (P0DMS8 whole entry): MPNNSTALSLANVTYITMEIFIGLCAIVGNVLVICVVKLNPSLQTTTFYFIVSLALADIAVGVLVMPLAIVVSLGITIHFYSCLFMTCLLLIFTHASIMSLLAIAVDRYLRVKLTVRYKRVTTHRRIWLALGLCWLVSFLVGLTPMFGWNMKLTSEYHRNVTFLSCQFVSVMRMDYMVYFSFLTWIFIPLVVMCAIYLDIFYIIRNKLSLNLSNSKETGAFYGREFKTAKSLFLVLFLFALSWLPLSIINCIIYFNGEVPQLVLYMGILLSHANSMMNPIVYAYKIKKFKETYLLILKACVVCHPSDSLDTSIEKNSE

In assay [8] the target is T5, Muscarinic acetylcholine receptor M2 (Homo sapiens, UniProt P08172).
T5 sequence (P08172 whole entry): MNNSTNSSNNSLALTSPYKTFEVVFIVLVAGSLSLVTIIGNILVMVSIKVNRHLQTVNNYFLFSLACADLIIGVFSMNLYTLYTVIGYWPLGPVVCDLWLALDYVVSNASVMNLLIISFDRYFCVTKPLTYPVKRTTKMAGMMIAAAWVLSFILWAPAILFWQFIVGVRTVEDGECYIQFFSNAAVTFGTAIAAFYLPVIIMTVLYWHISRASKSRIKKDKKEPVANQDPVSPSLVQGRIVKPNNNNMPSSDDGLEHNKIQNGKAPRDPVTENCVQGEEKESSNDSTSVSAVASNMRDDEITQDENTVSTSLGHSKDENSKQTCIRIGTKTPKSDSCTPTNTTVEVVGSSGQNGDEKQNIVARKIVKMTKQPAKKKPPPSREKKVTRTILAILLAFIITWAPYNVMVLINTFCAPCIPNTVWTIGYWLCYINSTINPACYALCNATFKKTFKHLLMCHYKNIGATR
The assay is classed as functional, cell-based.

Assay [9] concerns the target Growth hormone secretagogue receptor type 1 (Homo sapiens, UniProt Q92847).

By AC50 is commonly meant the concentration at which the activity in the assay is half-maximal.
Further: assay procedure not described here.

Sodium-dependent noradrenaline transporter, sequence (P23975 whole entry): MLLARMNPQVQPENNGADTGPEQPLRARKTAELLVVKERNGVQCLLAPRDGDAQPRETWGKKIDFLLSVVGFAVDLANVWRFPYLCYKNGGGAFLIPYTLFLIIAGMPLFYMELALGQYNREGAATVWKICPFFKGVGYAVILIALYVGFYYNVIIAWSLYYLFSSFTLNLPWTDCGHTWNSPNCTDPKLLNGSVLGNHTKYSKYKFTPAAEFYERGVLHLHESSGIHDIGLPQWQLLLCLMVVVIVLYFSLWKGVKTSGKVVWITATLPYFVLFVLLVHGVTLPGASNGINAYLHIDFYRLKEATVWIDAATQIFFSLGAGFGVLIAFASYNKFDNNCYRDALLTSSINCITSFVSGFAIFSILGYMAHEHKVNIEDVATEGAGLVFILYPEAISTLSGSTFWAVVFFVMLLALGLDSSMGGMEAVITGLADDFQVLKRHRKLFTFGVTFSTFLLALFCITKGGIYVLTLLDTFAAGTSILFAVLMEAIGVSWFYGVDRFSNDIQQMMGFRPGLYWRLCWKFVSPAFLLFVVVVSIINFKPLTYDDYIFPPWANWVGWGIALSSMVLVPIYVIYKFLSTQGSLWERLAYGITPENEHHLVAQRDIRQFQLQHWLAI
D(3) dopamine receptor, sequence (P35462 whole entry): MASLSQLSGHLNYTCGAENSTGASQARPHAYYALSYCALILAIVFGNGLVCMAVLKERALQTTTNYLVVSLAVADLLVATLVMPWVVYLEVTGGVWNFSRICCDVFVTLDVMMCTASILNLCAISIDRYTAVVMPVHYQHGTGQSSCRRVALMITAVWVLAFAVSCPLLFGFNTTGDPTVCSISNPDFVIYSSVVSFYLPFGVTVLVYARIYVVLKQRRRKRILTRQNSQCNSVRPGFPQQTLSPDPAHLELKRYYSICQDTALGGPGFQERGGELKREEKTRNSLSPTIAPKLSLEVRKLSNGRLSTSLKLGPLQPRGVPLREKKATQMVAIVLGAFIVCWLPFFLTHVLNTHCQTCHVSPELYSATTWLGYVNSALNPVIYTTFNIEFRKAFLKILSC
Voltage-dependent L-type calcium channel subunit alpha-1C, sequence (P22002 whole entry): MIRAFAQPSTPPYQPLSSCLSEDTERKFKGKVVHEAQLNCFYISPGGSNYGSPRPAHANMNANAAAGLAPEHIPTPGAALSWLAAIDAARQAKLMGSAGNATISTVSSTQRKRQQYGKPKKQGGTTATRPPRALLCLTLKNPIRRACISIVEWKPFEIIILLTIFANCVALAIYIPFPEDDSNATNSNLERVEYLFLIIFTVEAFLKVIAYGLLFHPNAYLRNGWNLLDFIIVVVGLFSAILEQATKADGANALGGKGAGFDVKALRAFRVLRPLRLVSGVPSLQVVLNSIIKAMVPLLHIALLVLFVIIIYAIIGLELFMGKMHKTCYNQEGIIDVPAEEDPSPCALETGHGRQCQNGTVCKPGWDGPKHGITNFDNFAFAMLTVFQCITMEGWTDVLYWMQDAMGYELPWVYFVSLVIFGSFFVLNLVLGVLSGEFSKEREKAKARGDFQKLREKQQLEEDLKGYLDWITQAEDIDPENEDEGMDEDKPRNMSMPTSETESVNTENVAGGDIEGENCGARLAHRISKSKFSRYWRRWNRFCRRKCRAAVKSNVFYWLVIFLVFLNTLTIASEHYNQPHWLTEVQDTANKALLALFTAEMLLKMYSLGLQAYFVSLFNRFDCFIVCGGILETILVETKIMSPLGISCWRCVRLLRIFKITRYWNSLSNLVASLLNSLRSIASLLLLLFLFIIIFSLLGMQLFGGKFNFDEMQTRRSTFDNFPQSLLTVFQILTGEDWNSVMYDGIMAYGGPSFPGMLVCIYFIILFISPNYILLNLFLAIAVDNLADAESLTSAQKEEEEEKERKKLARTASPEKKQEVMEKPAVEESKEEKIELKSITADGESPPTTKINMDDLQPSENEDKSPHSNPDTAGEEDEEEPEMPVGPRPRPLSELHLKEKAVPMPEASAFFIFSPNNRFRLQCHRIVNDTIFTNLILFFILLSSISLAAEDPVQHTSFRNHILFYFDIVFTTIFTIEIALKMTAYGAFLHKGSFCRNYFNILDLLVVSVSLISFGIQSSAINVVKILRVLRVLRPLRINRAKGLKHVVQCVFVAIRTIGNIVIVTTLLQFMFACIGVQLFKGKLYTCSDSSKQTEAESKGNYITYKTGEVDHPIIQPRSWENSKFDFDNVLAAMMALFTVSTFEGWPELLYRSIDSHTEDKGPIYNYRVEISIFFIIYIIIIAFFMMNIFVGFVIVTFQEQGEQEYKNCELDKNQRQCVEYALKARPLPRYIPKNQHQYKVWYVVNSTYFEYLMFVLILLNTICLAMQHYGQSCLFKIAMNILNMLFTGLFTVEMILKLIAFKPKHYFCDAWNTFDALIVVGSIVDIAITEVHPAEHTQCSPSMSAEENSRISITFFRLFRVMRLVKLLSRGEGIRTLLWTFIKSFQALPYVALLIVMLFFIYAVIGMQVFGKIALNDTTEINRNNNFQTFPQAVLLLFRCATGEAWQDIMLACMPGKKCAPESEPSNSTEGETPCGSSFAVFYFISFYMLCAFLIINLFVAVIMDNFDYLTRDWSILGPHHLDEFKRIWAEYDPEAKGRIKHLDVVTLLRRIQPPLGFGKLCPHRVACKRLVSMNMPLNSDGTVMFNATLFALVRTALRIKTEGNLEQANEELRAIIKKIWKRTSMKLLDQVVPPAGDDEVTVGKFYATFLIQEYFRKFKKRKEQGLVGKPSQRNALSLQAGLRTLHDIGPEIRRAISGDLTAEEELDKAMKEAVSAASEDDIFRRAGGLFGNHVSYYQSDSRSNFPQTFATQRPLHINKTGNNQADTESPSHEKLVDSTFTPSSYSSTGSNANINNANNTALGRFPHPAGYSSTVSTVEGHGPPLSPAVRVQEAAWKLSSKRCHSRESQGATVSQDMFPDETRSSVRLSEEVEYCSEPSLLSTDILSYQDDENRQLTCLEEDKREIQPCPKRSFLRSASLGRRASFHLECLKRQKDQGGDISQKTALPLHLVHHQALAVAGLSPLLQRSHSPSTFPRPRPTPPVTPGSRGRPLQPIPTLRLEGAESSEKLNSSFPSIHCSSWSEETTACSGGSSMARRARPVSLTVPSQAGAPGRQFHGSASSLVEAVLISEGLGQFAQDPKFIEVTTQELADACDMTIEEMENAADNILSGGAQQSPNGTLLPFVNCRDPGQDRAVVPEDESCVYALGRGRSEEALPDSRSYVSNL
Vasopressin V2 receptor, sequence (P30518 whole entry): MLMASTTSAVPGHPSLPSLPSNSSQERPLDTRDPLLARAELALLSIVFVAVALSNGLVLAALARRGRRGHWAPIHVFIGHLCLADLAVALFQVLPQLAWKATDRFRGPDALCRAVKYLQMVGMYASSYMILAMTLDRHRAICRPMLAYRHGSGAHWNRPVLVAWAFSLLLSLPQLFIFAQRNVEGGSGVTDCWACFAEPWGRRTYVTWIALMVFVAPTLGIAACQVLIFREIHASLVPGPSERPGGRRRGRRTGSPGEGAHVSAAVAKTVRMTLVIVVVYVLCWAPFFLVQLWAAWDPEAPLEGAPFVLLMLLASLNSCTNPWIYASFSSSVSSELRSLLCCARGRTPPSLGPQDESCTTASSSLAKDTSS
Adenosine receptor A2a, sequence (P29274 whole entry): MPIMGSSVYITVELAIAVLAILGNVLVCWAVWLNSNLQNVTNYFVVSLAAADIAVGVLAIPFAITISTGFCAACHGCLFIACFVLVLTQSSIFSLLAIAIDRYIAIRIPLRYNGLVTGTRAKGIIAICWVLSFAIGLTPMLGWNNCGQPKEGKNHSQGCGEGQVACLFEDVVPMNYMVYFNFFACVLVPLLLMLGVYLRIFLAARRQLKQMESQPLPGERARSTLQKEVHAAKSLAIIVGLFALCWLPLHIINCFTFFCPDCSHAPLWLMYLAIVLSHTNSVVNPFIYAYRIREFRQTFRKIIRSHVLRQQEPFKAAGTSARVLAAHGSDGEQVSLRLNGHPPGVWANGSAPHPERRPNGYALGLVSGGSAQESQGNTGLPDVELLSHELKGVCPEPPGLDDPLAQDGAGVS
Mu-type opioid receptor, sequence (P35372 whole entry): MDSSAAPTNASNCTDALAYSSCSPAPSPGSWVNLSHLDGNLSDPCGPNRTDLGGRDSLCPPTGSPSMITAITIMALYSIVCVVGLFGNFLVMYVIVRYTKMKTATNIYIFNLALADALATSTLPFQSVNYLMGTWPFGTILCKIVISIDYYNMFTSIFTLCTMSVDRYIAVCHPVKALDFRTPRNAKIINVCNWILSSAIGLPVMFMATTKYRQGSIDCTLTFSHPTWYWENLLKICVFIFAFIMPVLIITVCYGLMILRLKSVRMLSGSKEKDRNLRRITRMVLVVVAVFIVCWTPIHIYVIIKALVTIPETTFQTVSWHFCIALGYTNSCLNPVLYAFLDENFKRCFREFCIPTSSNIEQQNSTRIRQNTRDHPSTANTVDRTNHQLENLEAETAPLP
Growth hormone secretagogue receptor type 1, sequence (Q92847 whole entry): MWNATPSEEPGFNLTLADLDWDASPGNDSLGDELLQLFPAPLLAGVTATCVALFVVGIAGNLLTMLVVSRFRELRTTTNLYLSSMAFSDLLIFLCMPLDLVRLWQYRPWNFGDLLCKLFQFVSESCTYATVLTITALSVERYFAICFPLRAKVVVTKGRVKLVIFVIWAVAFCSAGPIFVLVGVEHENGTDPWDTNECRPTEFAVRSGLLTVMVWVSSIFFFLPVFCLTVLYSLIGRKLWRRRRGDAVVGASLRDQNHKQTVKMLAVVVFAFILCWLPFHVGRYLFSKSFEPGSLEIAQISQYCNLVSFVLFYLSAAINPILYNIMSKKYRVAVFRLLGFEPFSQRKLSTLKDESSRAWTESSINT

As to `C#C[C@]1(O)CC[C@H]2[C@@H]3CCC4=CC(=O)CC[C@@H]4[C@H]3C(=C)C[C@@]21CC` [ETONOGESTREL], the AC50 is greater than 30 µM in assay [1]; greater than 30 µM on D(3) dopamine receptor; greater than 30 µM in assay [2]; greater than 30 µM on Histamine H2 receptor; 28 µM in [3].

As for `CCc1nc(C(N)=O)c(Nc2ccc(N3CCC(N4CCN(C)CC4)CC3)c(OC)c2)nc1NC1CCOCC1` [GILTERITINIB], the concentration at half-maximal activity (AC50) is greater than 0.3 µM in assay [4] and greater than 30 µM in assay [3].

In assay [3], `O=C(O)CO` [GLYCOLIC ACID] displayed an AC50 greater than 30 µM.

In the case of `CC(C)Cc1ccc(C(C)C(=O)O)cc1` (stereo not given) [IBUPROFEN], the concentration at half-maximal activity (AC50) in assay [1] is greater than 10 µM; at D(3) dopamine receptor, greater than 30 µM; on Vasopressin V2 receptor it was greater than 30 µM; in assay [5], greater than 30 µM; in assay [2] it was greater than 10 µM; on Melanocortin receptor 3, greater than 30 µM. The AC50 in assay [6] was greater than 10 µM; in [4], greater than 30 µM; at Mu-type opioid receptor, greater than 30 µM; at Histamine H2 receptor, greater than 10 µM; on Adenosine receptor A2a, greater than 30 µM; in assay [7], greater than 30 µM. In addition, the AC50 was greater than 30 µM at Adenosine receptor A3, greater than 10 µM in assay [8] and greater than 30 µM in [9].

Consider `OC[C@H]1O[C@@H](c2ccc(F)c(Cc3cc4ccccc4s3)c2)[C@H](O)[C@@H](O)[C@@H]1O` [IPRAGLIFLOZIN], for which the AC50 in [4] was 22.2 µM; in assay [3], greater than 30 µM.

For the molecule `CN(CC1(C)CCCO1)S(=O)(=O)c1ccc(Cl)c(S(N)(=O)=O)c1` (stereo not given) [MEFRUSIDE], the AC50 (in assay [1]; on D(3) dopamine receptor; on Histamine H2 receptor; in assay [3]) was greater than 30 µM in each case.

Consider `CC(=O)O[C@]1(C(C)=O)CC[C@H]2[C@@H]3C=C(C)C4=CC(=O)CC[C@@H]4[C@H]3CC[C@@]21C` [NOMEGESTROL ACETATE], for which the AC50 in [1] was greater than 30 µM; at D(3) dopamine receptor, greater than 30 µM; in assay [5], greater than 30 µM; in [2], greater than 30 µM; at Melanocortin receptor 3 it was greater than 30 µM; in assay [4] it was greater than 10 µM. The AC50 on Histamine H2 receptor was greater than 30 µM; at Adenosine receptor A2a it was greater than 30 µM; on Adenosine receptor A3 it was greater than 30 µM; in assay [3] it was 4.4 µM; in [8], greater than 30 µM.

`CCOC(=O)c1c(C)cc2c(CO)n[nH]c(=O)c2c1C` [OXAGRELATE] came in with an AC50 in assay [3] greater than 30 µM.

As for `N#Cc1ccc2c(c1)N(CCCN1CCC(O)CC1)c1ccccc1S2` [PERICIAZINE], in assay [3], half-maximal activity (AC50) was put at 29.8 µM.

For `CN1C(C(=O)Nc2ccccn2)=C(O)c2ccccc2S1(=O)=O` [PIROXICAM], the AC50 is greater than 10 µM in [1]; greater than 30 µM at D(3) dopamine receptor; greater than 10 µM on Vasopressin V2 receptor; greater than 10 µM in assay [5]; greater than 10 µM in assay [2]; greater than 10 µM on Melanocortin receptor 3. For the same molecule, the concentration at half-maximal activity (AC50) in assay [6] is greater than 10 µM; at Mu-type opioid receptor, greater than 30 µM; on Histamine H2 receptor, greater than 30 µM; on Adenosine receptor A2a, greater than 10 µM; at Adenosine receptor A3 it was greater than 10 µM; in assay [3], greater than 30 µM. Moreover, the half-maximal activity concentration (AC50) in [8] and in [9] was greater than 10 µM throughout.

`CC[C@@]1(O)C(=O)OCc2c1cc1n(c2=O)Cc2cc3c([N+](=O)[O-])cccc3nc2-1` [RUBITECAN] yielded an AC50 in assay [3] greater than 30 µM.

Molecule `OC[C@@H](O)[C@@H](O)[C@H](O)[C@@H](O)CO` [SORBITOL] registered an AC50 in assay [3] greater than 30 µM.

Turning to `OC[C@H]1O[C@@](CO)(O[C@H]2O[C@H](CO)[C@@H](O)[C@H](O)[C@H]2O)[C@@H](O)[C@@H]1O` [SUCROSE], the AC50 (in [1]; on D(3) dopamine receptor; on Vasopressin V2 receptor; in assay [5]; in [2]; at Melanocortin receptor 3) was greater than 30 µM in each case. Further, the AC50 (on Histamine H2 receptor; on Adenosine receptor A2a; at Adenosine receptor A3; in [3]; in assay [8]; in assay [9]) was greater than 30 µM each time.

On to `COc1cc2nc(N3CCN(C(=O)C4CCCO4)CC3)nc(N)c2cc1OC` (stereo not given) [TERAZOSIN], for which the half-maximal activity concentration (AC50) in [1] was greater than 30 µM; on D(3) dopamine receptor it was greater than 30 µM; at Vasopressin V2 receptor, greater than 30 µM; in assay [5], greater than 10 µM; in [2], greater than 10 µM; on Melanocortin receptor 3, greater than 30 µM. Besides, the AC50 is 3 µM on Mu-type opioid receptor; greater than 10 µM at Histamine H2 receptor; greater than 30 µM on Adenosine receptor A2a; greater than 30 µM on Adenosine receptor A3; greater than 30 µM in assay [3]; greater than 10 µM in assay [8]. Besides, the half-maximal activity concentration (AC50) in [9] was greater than 30 µM.

On to `Cc1onc(-c2ccccc2)c1-c1ccc(S(N)(=O)=O)cc1` [VALDECOXIB], for which the AC50 in [1] is greater than 10 µM; on D(3) dopamine receptor, greater than 30 µM; on Vasopressin V2 receptor, greater than 30 µM; in [2] it was greater than 10 µM; on Melanocortin receptor 3, greater than 30 µM; in [6], greater than 10 µM. In addition, the AC50 in [4] is greater than 30 µM; at Mu-type opioid receptor it was greater than 30 µM; at Histamine H2 receptor, greater than 10 µM; on Adenosine receptor A2a, greater than 30 µM; in [7], greater than 30 µM; at Adenosine receptor A3, greater than 30 µM. For the same molecule, the concentration at half-maximal activity (AC50) in assay [8] is greater than 10 µM; in [9], greater than 30 µM.

As for `CCCC(CCC)C(=O)O` [VALPROIC ACID], the AC50 in assay [1] was greater than 10 µM; on D(3) dopamine receptor, 4.7 µM; on Vasopressin V2 receptor, greater than 30 µM; in assay [5], greater than 30 µM; in assay [2] it was greater than 10 µM; at Melanocortin receptor 3, greater than 30 µM. Besides, the AC50 was greater than 10 µM in [6]; greater than 30 µM at Mu-type opioid receptor; greater than 30 µM at Adenosine receptor A2a; greater than 30 µM at Adenosine receptor A3; greater than 30 µM in assay [3]; greater than 10 µM in assay [8]. In [9], the AC50 is greater than 30 µM.

(Values after ChEMBL document CHEMBL5291721, “A preclinical secondary pharmacology resource illuminates target-adverse drug reaction associations of marketed drugs” (Nat Commun, 2023).)
